Reference: US20120003186A1, “METHOD FOR DEDIFFERENTIATING ADIPOSE TISSUE STROMAL CELLS” (SNU R&DB FOUNDATION, priority 2010, published 2012)

Columns and labels:
Format in all cases: cell-based, human
[1] = tested on: dedifferentiated ATSC; experiment: Western blotting of growth-related signal proteins with inhibitor treatment; conditions: FIG. 9a
Source text: The inventors conducted following experiment to confirm the expression pattern of growth-related signal protein and Rex-1 in ATSC treated with hypoxia/DHP-derivative. To be specific, the expression of P-Jak2 (Phosphorylated-Janus kinase 2) and P-Stat3 (Phosphorylated-signal transducer and activator of transcription3) was observed by Western blotting using anti-P-Jak2 antibody and anti-P-Stat3 antibody in the same manner explained above in Examples 2 and 3 in cells of control group not treated with AG490 (Jak2 inhibitor, Sigma) and in cells of experimental group not treated with AG490 or treated with 20 μM or 30 μM. The expression of p-STAT3 and STAT3 was observed by Western blotting using anti-p-STAT3 antibody and anti-Stat3 antibody in the same manner of the Examples 2 and 3 in a control group not treated with AG490 and experimental group treated with hypoxia/DHP-derivative for 6 hours and then treated or not treated with AG490. The expression of p-MEK (Phosphorylated-Mitogen-activated Protein/ERK Kinase), MEK, p-ERK (Phosphorylated-Extracellular signal-regulated kinases), ERK, C-myc, p-STAT3 and STAT3 proteins was observed by Western blotting in the same manner of the Examples 2 and 3 in control group not treated with PD98059 (MEX inhibitor, Sigma) and experimental group treated with hypoxia/DHP-derivative for 6 hours and then treated or not treated with PD98059. The expression of p-P38, P38, P53 and P21 protein was observed by Western blotting in the same manner of Examples 2 and 3 in control group not treated with SB203580 (P38MAPK inhibitor, Sigma) and experimental group treated with hypoxia/DHP-derivative for 6 hours and then treated or not treated with SB203580. The antibodies to each protein were purchased from Santa Cruz. The result is illustrated in FIG. 9a.

[2] = tested on: dedifferentiated ATSC; experiment: Real time PCR of stemness and proliferation genes with inhibitor treatment; conditions: FIG. 9b; for expression of Oct-4 / expression of REX1, SOX2, CDk1 and CDk2: dedifferentiated ATSC treated with inhibitor
Description: The expression of Rex1, CDk1 and Runx3 genes were observed by real time PCR in the same manner of the Examples 2 and 3 in cells of control group not treated with AG490 and cells of experimental group not treated with AG490 or treated with 20 μM or 30 μM. As for a quantitative control group, the expression of GAPDH (glyceraldehyde-3-phosphate dehydrogenase) was also observed.
Expressions of REX1, Oct-4, SOX2, CDk1 and CDk2 were observed by real time PCR in the same manner of Examples 2 and 3 in each of the following cases. ATSC were treated with hypoxia/DPH-derivative for 6 hours and then divided into cases including: i) sample treated with nothing; ii) sample treated with SB203580 only; iii) sample treated with PD98059 only; and iv) sample treated with SB203580 and PD98059. As for a quantitative control group, the expression of GAPDH was also confirmed. The result is illustrated in FIG. 9b.

[3] = tested on: dedifferentiated ATSC; experiment: Colony formation with inhibitor treatment; conditions: dedifferentiated ATSC vs non-treated experimental group; similar to control group; FIG. 10
Description: The inventors conducted following experiment to confirm the actual growth of ATSC treated with hypoxia/DHP-derivative by the activity of Rex-1 and growth-related signal protein which was confirmed at Example 7-1. To be specific, cells of control group and cells of experimental group treated with HPD98059, SB203580 or AG490, or not treated were prepared, and measured for colony formation. The result is illustrated in FIG. 10.

[4] = tested on: dedifferentiated ATSC; experiment: Cell migration with signal transmission inhibitors; conditions: dedifferentiated ATSC treated with inhibitor; FIG. 15
Description: In the developmental procedures, cell migration is considered to be critical for normal development. Accordingly, the inventors conducted experiment as explained below to confirm the in vitro migration activity of dedifferentiated ATSC. First, experimental group was cultured in a culture medium containing control cell group and DHP-derivative under hypoxia condition for 30 minutes or 6 hours and then cultured in low serum growth medium. The cultured cells were moved onto 6-transwell plate (8 μm pore size; Costar, U.S.A) coated with laminin (Chemicon, U.S.A). The respective cells were divided on an upper layer chamber, and cultured under 37° C., 5% carbon dioxide condition for 48 hours, during which the cells were left to migrate from the upper layer chamber to the lower layer chamber. The remaining, non-migrated cells were removed from the surface of the upper layer chamber and the migrated cells in the lower layer chamber were stained with Harris hematoxylin (Sigma Aldrich, U.S.A). Cells were counted from 20-selected areas for the respective cells.
The inventors conducted experiment to confirm the signal pathway that influences the in vitro migration of ATSC which were treated with hypoxia/DHP-derivative.

[5] = vs sample not treated with inhibitor

Row | SMILES | expression of P-Jak2 and P-Stat3 ([1]; higher concentration of AG490 (20 μM or 30 μM)) | expression of Rex′1, CDK1, CDK2, Nanog and Runx3 ([2]; dedifferentiated ATSC, higher concentration of AG490) | cell proliferation (colony formation) [3] | expression of C-myc [1, 5] | phosphorylation of MEK [1, 5] | expression of Oct-4 [2] | expression of REX1, SOX2, CDk1 and CDk2 [2] | cell migration [4] | expression of P53 and P21 [1, 5] | phosphorylation of P38 [1, 5]
1 | N#C/C(=C/c1ccc(O)c(O)c1)C(=O)NCc1ccccc1 [AG490] | decreased expression | decreased expression | decreased cell proliferation |  |  |  |  |  |  | 
2 | COc1cccc(-c2cc(=O)c3ccccc3o2)c1N [PD98059] |  |  | decreased cell proliferation | decreased expression | increased phosphorylation | not changed | decreased | noticeably decreased |  | 
3 | C[S+]([O-])c1ccc(-c2nc(-c3ccncc3)c(-c3ccc(F)cc3)[nH]2)cc1 (stereo not drawn) [SB203580] |  |  | decreased cell proliferation |  |  | not changed | decreased | noticeably decreased | increased expression | decreased phosphorylation
